In paper PMC11171218, “N-Benzylated 5-Hydroxybenzothiophene-2-carboxamides as Multi-Targeted Clk/Dyrk Inhibitors and Potential Anticancer Agents” (Cancers, 2024):

Legend:
T24 cells = test: CCK-8 cell viability, T24; format: cell-based; details: Homo sapiens, T-24, 72 h; for inhibition at 20 µM: CCK-8, mean ± S.E.M. (n = 3), read-out: T24 % Inh. at μM; for IC50: CCK-8, 50% inhibition of viability
Method: (§1) All cells were purchased from Bioresource Collection and Research Center (Hsinchu, Taiwan) and cultured in corresponding media supplemented with 10% fetal bovine serum, 1 × Antibiotic-Antimycotic at 37 °C in a humidified incubator with 5% CO2. […] T24 cells were cultured in McCoy’s 5a media. IEC-6 cells were cultured in DMEM media supplemented with 5% fetal bovine serum, 1 × Antibiotic–Antimycotic, and 0.1 unit/mL insulin.
(§2) Cells were incubated with the Cell Counting Kit-8 (CCK-8) reagent (TargetMol, Boston, MA, USA) at 37 °C for 2 h. The cell viability was determined by spectrophotometer at 450 nm.

Clk2 = Clk2 (Homo sapiens, UniProt P49760); test: Z'-LYTE kinase inhibition assay, Clk2; format: biochemical; details: for inhibition at 1 µM: 1 µM compound, screening by Thermo Fisher Scientific; for IC50: ATP concentration equivalent to Km
Text: (§3) 3. Experimental procedure for protein kinases and inhibition assays.
(§4) 3.1 The Z ́ -LYTE biochemical assay for screening and IC 50 determination for Clk1, Dyrk1A, Dyrk1B, Clk2 and Clk3 kinases.
(§5) The assay employs a fluorescence-based, coupled-enzyme format and is based on the differential sensitivity of phosphorylated and non-phosphorylated peptides to proteolytic cleavage. The peptide substrate is labeled with two fluorophores-one at each end-that make up a FRET pair. In the primary reaction, the kinase transfers the gamma-phosphate of ATP to a single tyrosine, serine, or threonine residue in a synthetic FRET-peptide. In the secondary reaction, a site-specific protease recognizes and cleaves non-phosphorylated FRET-peptides. Phosphorylation of FRET-peptides suppresses cleavage by the Development Reagent. Cleavage disrupts FRET between the donor (i.e., coumarin) and acceptor (i.e., fluorescein) fluorophores on the FRET-peptide, whereas uncleaved, phosphorylated FRET-peptides maintain FRET. A ratiometric method, which calculates the ratio (the Emission Ratio) of donor emission to acceptor emission after excitation of the donor fluorophore at 400 nm, is used to quantitate reaction progress. Both cleaved and uncleaved FRET-peptides contribute to the fluorescence signals and therefore to the Emission Ratio. The extent of phosphorylation of the FRET-peptide can be calculated from the Emission Ratio. The Emission Ratio will remain low if the FRET-peptide is phosphorylated (i.e., no kinase inhibition) and will be high if the FRET-peptide is non-phosphorylated (i.e., kinase inhibition).
(§6) The IC 50 values were determined for compounds displaying significant % inhibition in the screening step. IC 50 determination was done through testing at a range of concentrations with two […]
(§7) two independent experiments. […]
Development Reagent A is added.
3.1.4 Clk2 kinase assay specific conditions:
The 2X Clk2 / Ser/Thr 06 mixture is prepared in 50 mM HEPES pH 7.5, 0.01% BRIJ-35, 10 mM […]
Ser/Thr 06 in 50 mM HEPES pH 7.5, 0.01% BRIJ-35, 10 mM MgCl2, 1 mM EGTA. […]
(§8) MgCl2, 1 mM EGTA, 0.02% NaN3. […]

MCF-7 cells = test: CCK-8 cell viability, MCF-7; format: cell-based; details: Homo sapiens, MCF7, 72 h, CCK-8, mean ± S.E.M. (n = 3), read-out: MCF-7 % Inh. at μM
Method: as §1, §2

Dyrk1B = Dyrk1B (Homo sapiens, UniProt Q9Y463); test: Z'-LYTE kinase inhibition assay, Dyrk1B; format: biochemical; details: for IC50: ATP conc. equivalent to Km; for inhibition at 1 µM: read-out: Dyrk1B % Inh. At 1 µM
Text: as §3, §4, §5, §6, §7
3.1.3 Dyrk1B kinase assay specific conditions:
The 2X Dyrk1B / Ser/Thr 18 mixture is prepared in 50 mM HEPES pH 6.5, 0.01% BRIJ-35, 10 […]
mM MgCl2, 1 mM EGTA, 0.02% NaN3.
(§9) Development Reagent A is added. […]
as §8

U87 cells = test: CCK-8 cell viability, U87; format: cell-based; details: Homo sapiens, U-87 MG, 72 h; for inhibition at 20 µM: CCK-8, mean ± S.E.M. (n = 3), read-out: U87 % Inh. at μM
Method: as §1, §2

Clk1 = Clk1 (Homo sapiens, UniProt P49759); test: Z'-LYTE kinase inhibition assay, Clk1; format: biochemical; details: for IC50: ATP conc. equivalent to Km; for inhibition at 1 µM: read-out: Clk1 % Inh. At 1 µM
Text: as §3, §4, §5, §6
two independent experiments.
3.1.1 Clk1 kinase assay specific conditions:
The 2x Clk1 / Ser/Thr 09 mixture is prepared in 50 mM HEPES pH 7.5, 0.01% BRIJ-35, 10 mM MgCl 2, 1 mM EGTA. The final 10 μL kinase reaction consists of 30 - 120 ng Clk1 and 2 μM Ser/Thr 09 in 50 mM HEPES pH 7.5, 0.01% BRIJ-35, 10 mM MgCl 2, 1 mM EGTA. After the 1 h

Clk3 = Clk3 (Homo sapiens, UniProt P49761); test: Z'-LYTE kinase inhibition assay, Clk3; format: biochemical; details: 1 µM compound; screening by Thermo Fisher Scientific
Text: as §3, §4, §5, §6, §7, §9
3.1.5 Clk3 kinase assay specific conditions:
The 2X Clk3 / Ser/Thr 18 mixture is prepared in 50 mM Tris pH 8.5, 0.01% BRIJ-35, 10 mM […]
as §8
of Development Reagent A is added.

A549 cells = test: CCK-8 cell viability, A549; format: cell-based; details: Homo sapiens, 72 h, CCK-8, mean ± S.E.M. (n = 3), read-out: A549 % Inh. at μM
Method: as §1, §2

Clk3, sequence (P49761 whole entry): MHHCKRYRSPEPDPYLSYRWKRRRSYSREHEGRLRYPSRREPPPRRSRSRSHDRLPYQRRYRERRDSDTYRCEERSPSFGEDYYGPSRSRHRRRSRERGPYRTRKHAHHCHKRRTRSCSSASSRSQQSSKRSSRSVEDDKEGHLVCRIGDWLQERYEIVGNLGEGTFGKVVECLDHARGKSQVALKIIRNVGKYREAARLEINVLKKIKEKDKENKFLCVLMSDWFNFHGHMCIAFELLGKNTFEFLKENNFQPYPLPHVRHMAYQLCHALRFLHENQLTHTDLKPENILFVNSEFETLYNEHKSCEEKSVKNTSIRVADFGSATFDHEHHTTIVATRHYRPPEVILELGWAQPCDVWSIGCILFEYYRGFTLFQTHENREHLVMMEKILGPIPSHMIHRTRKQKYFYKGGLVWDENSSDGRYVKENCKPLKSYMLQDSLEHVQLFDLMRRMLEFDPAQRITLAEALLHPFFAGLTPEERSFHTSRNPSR
Clk2, sequence (P49760 whole entry): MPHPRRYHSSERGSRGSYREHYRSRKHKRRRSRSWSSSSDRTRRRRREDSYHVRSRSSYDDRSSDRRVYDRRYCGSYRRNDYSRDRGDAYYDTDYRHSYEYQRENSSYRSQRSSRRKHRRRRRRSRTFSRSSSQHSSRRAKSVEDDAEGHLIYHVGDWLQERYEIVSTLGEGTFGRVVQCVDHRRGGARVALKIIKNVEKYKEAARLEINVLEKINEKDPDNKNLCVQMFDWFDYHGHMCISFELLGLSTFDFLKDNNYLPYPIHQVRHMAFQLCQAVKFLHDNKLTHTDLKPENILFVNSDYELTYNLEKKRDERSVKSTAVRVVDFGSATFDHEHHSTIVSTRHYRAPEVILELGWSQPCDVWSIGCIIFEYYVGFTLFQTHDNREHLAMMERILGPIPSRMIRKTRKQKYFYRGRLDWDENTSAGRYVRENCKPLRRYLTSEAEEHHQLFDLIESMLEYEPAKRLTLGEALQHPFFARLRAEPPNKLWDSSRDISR
Dyrk1B, sequence (Q9Y463 whole entry): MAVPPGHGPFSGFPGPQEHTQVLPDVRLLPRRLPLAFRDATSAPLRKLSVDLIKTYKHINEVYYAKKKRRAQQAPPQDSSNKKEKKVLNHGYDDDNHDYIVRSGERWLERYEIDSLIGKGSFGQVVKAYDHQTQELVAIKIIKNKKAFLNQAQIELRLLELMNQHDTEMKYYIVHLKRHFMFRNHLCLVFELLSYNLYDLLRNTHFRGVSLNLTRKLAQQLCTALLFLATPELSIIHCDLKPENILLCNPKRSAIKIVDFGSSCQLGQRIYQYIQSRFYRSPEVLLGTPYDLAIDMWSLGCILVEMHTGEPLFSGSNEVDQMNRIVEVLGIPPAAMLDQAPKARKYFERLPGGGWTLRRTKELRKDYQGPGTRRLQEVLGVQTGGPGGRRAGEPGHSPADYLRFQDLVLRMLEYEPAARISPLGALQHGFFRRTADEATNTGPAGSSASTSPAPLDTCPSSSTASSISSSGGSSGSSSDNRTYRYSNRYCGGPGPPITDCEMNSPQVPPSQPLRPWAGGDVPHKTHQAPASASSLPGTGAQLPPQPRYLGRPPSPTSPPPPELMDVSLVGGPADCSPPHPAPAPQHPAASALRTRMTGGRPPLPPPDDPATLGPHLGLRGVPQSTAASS
Clk1, sequence (P49759 whole entry): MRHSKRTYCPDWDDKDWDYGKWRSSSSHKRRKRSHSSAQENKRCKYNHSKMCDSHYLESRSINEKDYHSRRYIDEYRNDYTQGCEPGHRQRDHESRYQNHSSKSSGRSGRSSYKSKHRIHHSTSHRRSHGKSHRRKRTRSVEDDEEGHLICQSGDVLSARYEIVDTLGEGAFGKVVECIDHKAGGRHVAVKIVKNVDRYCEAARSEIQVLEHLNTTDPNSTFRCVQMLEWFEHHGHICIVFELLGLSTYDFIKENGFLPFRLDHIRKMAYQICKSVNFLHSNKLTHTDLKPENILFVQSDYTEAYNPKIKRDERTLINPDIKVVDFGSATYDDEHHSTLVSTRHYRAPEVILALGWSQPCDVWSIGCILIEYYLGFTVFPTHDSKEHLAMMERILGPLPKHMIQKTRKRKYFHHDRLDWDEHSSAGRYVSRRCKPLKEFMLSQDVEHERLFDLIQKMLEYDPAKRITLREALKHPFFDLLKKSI

Compound	inhibition at 20 µM (T24 cells) [%]	IC50 (T24 cells) [µM]	inhibition at 1 µM (Clk2) [%]	inhibition at 20 µM (MCF-7 cells) [%]	IC50 (Dyrk1B) [µM]	inhibition at 1 µM (Dyrk1B) [%]	inhibition at 20 µM (U87 cells) [%]	IC50 (Clk1) [µM]	inhibition at 1 µM (Clk1) [%]	inhibition at 1 µM (Clk3) [%]	inhibition at 20 µM (A549 cells) [%]	IC50 (Clk2) [µM]	IC50 (U87 cells; CCK-8, 50% inhibition of viability) [µM]	Improvement in inhibitory activity against Dyrk1B compared to compound 1 (Dyrk1B; ratio of IC50 vs compound 1) [fold]	Improvement in inhibitory activity against Clk1 compared to compound 1 (Clk1; ratio of IC50 vs compound 1) [fold]
O=C(NCc1cccc(Cl)c1)c1cc2cc(O)ccc2s1 [Compound 3, N-(3-Chlorobenzyl)-5-hydroxybenzo[b]thiophene-2-carboxamide]	68.6 ± 3.95	14	46	15.6 ± 3.85	0.53	66	32.2 ± 4.76	0.257	79	22	54.7 ± 3.77	–	–	–	–
O=C(NCc1cccc(F)c1)c1cc2cc(O)ccc2s1 [Compound 6, N-(3-Fluorobenzyl)-5-hydroxybenzo[b]thiophene-2-carboxamide]	49.3 ± 6.04	–	38	16.2 ± 2.2	0.406	71	21 ± 5.07	0.41	72	27	36.5 ± 1.57	–	–	–	–
COc1ccccc1CNC(=O)c1cc2cc(O)ccc2s1 [Compound 11, 5-Hydroxy-N-(2-methoxybenzyl)benzo[b]thiophene-2-carboxamide]	55.3 ± 3.3	–	50	56.4 ± 4.47	0.578	64	18.1 ± 0.81	0.725	60	24	34.7 ± 3.91	–	–	–	–
COc1cccc(CNC(=O)c2cc3cc(O)ccc3s2)c1 [Compound 12, 5-Hydroxy-N-(3-methoxybenzyl)benzo[b]thiophene-2-carboxamide]	100	6	62	93.5 ± 0.17	0.238	81	60.1 ± 6.16	0.153	86	26	41 ± 8.96	0.617	16.5	–	–
O=C(NCc1cc(F)cc(F)c1)c1cc2cc(O)ccc2s1 [Compound 17, N-(3,5-Difluorobenzyl)-5-hydroxybenzo[b]thiophene-2-carboxamide]	59.9 ± 2.05	14.9	62	20.9 ± 2.02	0.242	81	47.3 ± 5.65	0.168	85	26	38.8 ± 4.06	0.708	–	4	4
